Data: patent US8877707B2, “Inhibitors of HCV NS5A” (Presidio Pharmaceuticals, Inc., priority 2010, dated 2014)

Tested on: HCV genotype 1b replicon in Huh 7 cells
Assay: HCV replicon assay (1b_Huh-Luc/Neo-ET cell line, luciferase readout)
Assay type: cell-based
Settings: Hepatitis C virus, Huh-7; HCV 1b replicon; read-out: Inhibition of HCV genotype 1b
Procedure, shortened: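 Replicon level was read as luciferase signal after 72 h compound exposure, triplicate wells, starting the day after cells were plated. Cell line: 1b_Huh-Luc/Neo-ET. Values normalised to control as percent, and EC50 fitted with a variable-slope sigmoid; determinations repeated.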

**Q.** How did the EC50 turn out when `COC(=O)N[C@@H](C)C(=O)N1CCC[C@H]1C(=O)Nc1ccc(-c2ccc3cc(-c4cnc([C@@H]5CCCN5C(=O)[C@H](C)NC(=O)OC)[nH]4)ccc3c2)cc1` [compound 570] was run?
**A.** 1 to 9.9 nM

**Q.** How did the EC50 turn out when `COC(=O)N[C@H](C(=O)N1CCC[C@H]1C(=O)Nc1ccc(-c2ccc3cc(-c4cnc([C@@H]5CCCN5C(=O)[C@@H](NC(=O)OC)C(C)C)[nH]4)ccc3c2)cc1)C(C)C` [compound 571] was run?
**A.** < 1 nM

**Q.** Which EC50 does the source give for `COC(=O)N[C@H](C(=O)N1CCC[C@H]1CNC(=O)c1ccc(-c2ccc3cc(-c4cnc([C@@H]5CCCN5C(=O)[C@@H](NC(=O)OC)[C@@H](C)OC)[nH]4)ccc3c2)cc1)[C@@H](C)OC` [compound 572] here?
**A.** < 1 nM

**Q.** For `COC(=O)N[C@H](C(=O)N1CCC[C@H]1CNC(=O)c1ccc(-c2ccc3cc(-c4cnc([C@@H]5CCCN5C(=O)[C@@H](NC(=O)OC)C5CCOCC5)[nH]4)ccc3c2)cc1)C1CCOCC1` [compound 573], which EC50 is on record?
**A.** < 1 nM

**Q.** How did the EC50 turn out when `COC(=O)N[C@H](C(=O)N1CCC[C@H]1CNC(=O)c1ccc2cc(-c3ccc(-c4cnc([C@@H]5CCCN5C(=O)[C@@H](NC(=O)OC)C(C)C)[nH]4)cc3)ccc2c1)C(C)C` [compound 574] was run?
**A.** < 1 nM

**Q.** With `COC(=O)N[C@H](C(=O)N1CCC[C@H]1CNC(=O)c1ccc2cc(-c3ccc(-c4cnc([C@@H]5CCCN5C(=O)[C@@H](NC(=O)OC)[C@@H](C)OC)[nH]4)cc3)ccc2c1)[C@@H](C)OC` [compound 575] as the compound, how does the EC50 read?
**A.** < 1 nM

**Q.** How did the EC50 turn out when `COC(=O)N[C@@H](C(=O)N1CCC[C@H]1CNC(=O)c1ccc2cc(-c3ccc(-c4cnc([C@@H]5CCCN5C(=O)[C@H](NC(=O)OC)c5ccccc5)[nH]4)cc3)ccc2c1)c1ccccc1` [compound 577] was run?
**A.** < 1 nM

**Q.** How did the EC50 turn out when `COC(=O)N[C@H](C(=O)N1CCC[C@H]1C(=O)Nc1ccc(-c2ccc3cc(-c4cnc([C@@H]5CCCN5C(=O)[C@@H](NC(=O)OC)[C@@H](C)OC)[nH]4)ccc3c2)cc1)[C@@H](C)OC` [compound 578] was run?
**A.** < 1 nM

**Q.** `COC(=O)N[C@H](C(=O)N1CCC[C@H]1c1ncc(-c2ccc3cc(-c4cc5[nH]c([C@@H]6CCCN6C(=O)[C@@H](NC(=O)OC)C(C)C)nc5cc4F)ccc3c2)[nH]1)C(C)C` [compound 700] was tested. Which EC50 did it give?
**A.** < 1 nM

**Q.** For `COC(=O)N[C@H](C(=O)N1CCC[C@H]1c1ncc(-c2ccc3cc(-c4cc5[nH]c([C@@H]6CCCN6C(=O)[C@@H](NC(=O)OC)[C@@H](C)OC)nc5cc4F)ccc3c2)[nH]1)[C@@H](C)OC` [compound 701], which EC50 is on record?
**A.** < 1 nM

**Q.** `COC(=O)N[C@H](C(=O)N1CCC[C@H]1c1ncc(-c2ccc3cc(-c4cc5[nH]c([C@@H]6CCCN6C(=O)[C@@H](NC(=O)OC)C6CCOCC6)nc5cc4F)ccc3c2)[nH]1)C1CCOCC1` [compound 702] was tested. Which EC50 did it give?
**A.** < 1 nM

**Q.** Which EC50 does the source give for `CC[C@H](C)[C@H](NC(=O)OC)C(=O)N1CCC[C@H]1c1ncc(-c2ccc3cc(-c4cc5[nH]c([C@@H]6CCCN6C(=O)[C@@H](NC(=O)OC)[C@@H](C)CC)nc5cc4F)ccc3c2)[nH]1` [compound 703] here?
**A.** < 1 nM
